Experimental data taken from publication PMC10584170, “Machine learning-based phenotypic imaging to characterise the targetable biology of Plasmodium falciparum male gametocytes for the development of transmission-blocking antimalarials” (PLOS Pathogens, 2023).

What was measured:
[1] = test system: P. falciparum female gametocytes; experiment: P. falciparum Dual Gamete Formation Assay (PfDGFA), female readout (Pfs25-positive female gametes); type: cell-based, Plasmodium falciparum NF54; conditions: for Average inhibition female (%): average of replicates; for % inhibition female (individual replicates) R1: replicate R1; for % inhibition female (individual replicates) R3: replicate R3; for % inhibition female (individual replicates) R4: replicate R4
How it was run: (§1)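 Male and female gamete formation were quantified by microscopy image analysis following 24 h incubation of mature NF54 gametocytes with compound and activation at 28°C with xanthurenic acid.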

[2] = test system: P. falciparum male gametocytes; experiment: P. falciparum Dual Gamete Formation Assay (PfDGFA), male readout (exflagellation); type: cell-based, Plasmodium falciparum NF54; conditions: for Average inhibition male (%): average of replicates; for % inhibition male (individual replicates) R1: replicate R1; for % inhibition male (individual replicates) R3: replicate R3; for % inhibition male (individual replicates) R4: replicate R4; for Activity: hit = >50% inhibition in male or female readout in at least 3 replicates, 0 = no class assigned
How it was run: as §1

[3] = PfDGFA at 2µM, 24h preincubation with gametocytes
[4] = number of replicates with >50% inhibition in the female readout, 2µM
[5] = number of replicates with >50% inhibition in the male readout, 2µM
[6] = 2µM, 24h preincubation with gametocytes prior to induction of gametogenesis
[7] = 2µM, 24h preincubation, number of replicates with >50% inhibition in the female readout
[8] = 2µM, 24h preincubation, number of replicates with >50% inhibition in the male readout
[9] = PfDGFA at 2µM, 24h preincubation with gametocytes prior to induction of gametogenesis
[10] = PfDGFA at 2µM, 24h preincubation
[11] = 2µM, 24h preincubation, hits selected on >50% inhibition in the female readout across replicates
[12] = 2µM, 24h preincubation, hits selected on >50% inhibition in the male readout across replicates

SMILES | Average inhibition female (%) [1, 6] [%] | % inhibition female (individual replicates) R1 [1, 6] [%] | % inhibition female (individual replicates) R3 [1, 6] [%] | % inhibition female (individual replicates) R4 [1, 6] [%] | HitlevelF [1, 7] | Average inhibition male (%) [2, 6] [%] | % inhibition male (individual replicates) R1 [2, 6] [%] | % inhibition male (individual replicates) R3 [2, 6] [%] | % inhibition male (individual replicates) R4 [2, 6] [%] | HitlevelM [2, 8] | HitlevelF [1, 11] | HitlevelM [2, 12] | Activity [2, 10] | also measured
O=C(CCC1CCCC1)N(Cc1ccc(-c2ccc(CNCCc3ccccc3)cc2)cc1)C1CCCNC1.O=C(O)C(F)(F)F (stereo not shown) [TCMDC-141444] |  |  |  |  |  |  |  |  |  |  |  |  |  | Average inhibition female (%) [1, 3]: 21.8%; % inhibition female (individual replicates) R1 [1, 3]: 31.1%; % inhibition female (individual replicates) R3 [1, 3]: 20.3%; % inhibition female (individual replicates) R4 [1, 3]: 22.2%; HitlevelF [1, 4]: 0; Average inhibition male (%) [2, 3]: 71.0%; % inhibition male (individual replicates) R1 [2, 3]: 62.4%; % inhibition male (individual replicates) R3 [2, 3]: 42.1%; % inhibition male (individual replicates) R4 [2, 3]: 88.2%; HitlevelM [2, 5]: 3
CC(C)CC(=O)N(Cc1ccc(-c2ccc(CNC3Cc4ccccc4C3)cc2)cc1)C1CCNCC1.O=C(O)C(F)(F)F [TCMDC-141449] | 21.5 | 24.4 | 9.8 | 34.2 | 0 | 48.3 | 49.9 | 28.4 | 64.9 | 2 |  |  |  | 
O=C(COc1ccccc1)N(Cc1ccc(-c2ccc(CNC3Cc4ccccc4C3)cc2)cc1)C1CCNCC1.O=C(O)C(F)(F)F [TCMDC-141450] |  |  |  |  |  |  |  |  |  |  |  |  |  | % inhibition female (individual replicates) R1 [1, 9]: 8.2%; % inhibition female (individual replicates) R3 [1, 9]: -25.4%; % inhibition female (individual replicates) R4 [1, 9]: -2.6%; Average inhibition female (%) [1, 10]: -0.0825%; % inhibition male (individual replicates) R1 [2, 9]: 15.3%; % inhibition male (individual replicates) R3 [2, 9]: -5.5%; % inhibition male (individual replicates) R4 [2, 9]: 33.6%; Average inhibition male (%) [2, 10]: 16.7%
CN(C)CCCNCc1ccc(-c2ccc(CNCCOc3ccccc3)cc2)cc1.O=C(O)C(F)(F)F [TCMDC-141457] |  |  |  |  |  |  |  |  |  |  |  |  |  | % inhibition female (individual replicates) R1 [1, 9]: 3.5%; % inhibition female (individual replicates) R3 [1, 9]: -18.9%; % inhibition female (individual replicates) R4 [1, 9]: -9.2%; Average inhibition female (%) [1, 10]: -4.9%; % inhibition male (individual replicates) R1 [2, 9]: 5.2%; % inhibition male (individual replicates) R3 [2, 9]: 1.0%; % inhibition male (individual replicates) R4 [2, 9]: 30.2%; Average inhibition male (%) [2, 10]: 9.2%
COc1cccc(CCN(Cc2ccccc2-c2ccc(CNC3CC(C)(C)NC(C)(C)C3)cc2)C(=O)NC2CCCCC2)c1.Cl [TCMDC-141577] | 13.0 | 16.8 | -15.5 | 31.4 |  | 1.5 | 8.1 | -2.0 | 2.2 |  | 0 | 0 | 0 | 
CN(C)CCCNc1nccc(N(C)c2ccc(NC(=O)Nc3cc(C(F)(F)F)ccc3F)cc2)n1.O=C(O)C(F)(F)F [TCMDC-141633] | 13.3 | 14.0 | 9.3 | 15.1 |  | 62.2 | 40.8 |  | 63.9 |  | 0 | 2 | 0 | 
O=C(O)C(F)(F)F.c1ccc(CCNCc2ccc(-c3ccc(CNC4CCN(Cc5ccccc5)CC4)cc3)nc2)cc1 [TCMDC-141649] | 11.9 | 20.3 | -13.0 | 18.4 |  | 11.3 | 9.5 | -1.4 | 30.2 |  | 0 | 0 | 0 | 
CCCCCCN1CCC(NCc2ccc(OCCN3CCCC3)cc2)CC1.O=C(O)C(F)(F)F [TCMDC-141663] | 15.8 | 20.0 | 13.5 | 15.0 |  | 7.0 | 26.8 | -12.7 | -11.8 |  | 0 | 0 | 0 | 
CN1CCc2cc(NS(=O)(=O)c3ccc(-c4ccc(Cl)cc4)cc3)c(OCCCN3CCCCC3)cc2CC1.Cl [TCMDC-141754] |  |  |  |  |  |  |  |  |  |  |  |  |  | Average inhibition female (%) [1, 3]: 21.5%; % inhibition female (individual replicates) R1 [1, 3]: 25.0%; % inhibition female (individual replicates) R3 [1, 3]: 13.0%; % inhibition female (individual replicates) R4 [1, 3]: 19.2%; HitlevelF [1, 4]: 0; Average inhibition male (%) [2, 3]: 76.4%; % inhibition male (individual replicates) R1 [2, 3]: 81.6%; % inhibition male (individual replicates) R3 [2, 3]: 46.2%; % inhibition male (individual replicates) R4 [2, 3]: 86.2%; HitlevelM [2, 5]: 3
Cl.Clc1ccc(C2CCN(CCCOc3ccc4c(c3)CCNCC4)CC2)cc1 [TCMDC-141782] | 28.4 | 14.5 | 2.3 | 70.0 | 1 | 47.0 | 45.1 | 27.8 | 64.2 | 2 |  |  |  | 
Cc1cc(F)ccc1-c1nc(NCCCNCCc2ccccc2)nc2c1ccc(=O)n2-c1c(F)cccc1F.O=C(O)C(F)(F)F [TCMDC-141804] | 33.0 | 27.9 | 6.6 | 62.0 | 1 | 11.7 | 17.7 | -28.8 | 37.6 | 0 |  |  |  | 
Cc1c(Cn2ncc(N3CCC(N)CC3)c(Cl)c2=O)cccc1NC(=O)Nc1ccc(-c2ccccc2)cc1.O=C(O)C(F)(F)F [TCMDC-141931] | 48.9 | 32.2 | 19.7 | 64.5 | 2 | 36.5 | 42.7 | 3.4 | 40.2 | 1 |  |  |  | 
Nc1nc(N)c2cc(CNc3ccc(Cl)c(Cl)c3)ccc2n1 [TCMDC-141974] |  |  |  |  |  |  |  |  |  |  |  |  |  | % inhibition female (individual replicates) R1 [1, 9]: 1.5%; % inhibition female (individual replicates) R3 [1, 9]: -5.9%; % inhibition female (individual replicates) R4 [1, 9]: 0.5%; Average inhibition female (%) [1, 10]: -1.4%; % inhibition male (individual replicates) R1 [2, 9]: 19.3%; % inhibition male (individual replicates) R3 [2, 9]: 26.8%; % inhibition male (individual replicates) R4 [2, 9]: 9.5%; Average inhibition male (%) [2, 10]: 20.3%
